The target of the assay is T1, human CRTH2 (Homo sapiens, UniProt Q9Y5Y4).
T1 construct: expressed in transfected cells; host or cells: CHO-K1
T1 sequence (Q9Y5Y4 1-395): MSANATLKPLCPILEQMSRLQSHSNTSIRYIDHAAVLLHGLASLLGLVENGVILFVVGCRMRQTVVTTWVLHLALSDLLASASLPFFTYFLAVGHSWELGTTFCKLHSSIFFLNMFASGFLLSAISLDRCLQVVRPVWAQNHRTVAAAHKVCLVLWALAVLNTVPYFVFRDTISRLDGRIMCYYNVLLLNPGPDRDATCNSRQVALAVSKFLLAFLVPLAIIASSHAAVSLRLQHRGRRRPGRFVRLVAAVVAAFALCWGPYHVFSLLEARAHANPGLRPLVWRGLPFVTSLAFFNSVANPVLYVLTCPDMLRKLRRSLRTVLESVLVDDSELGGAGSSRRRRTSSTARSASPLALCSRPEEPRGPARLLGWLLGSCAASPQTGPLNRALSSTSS
The experiment in a line: Human CRTH2 Receptor Binding Assay (whole cell, [3H]ramatroban competition). The settings on record: CHO-K1 cells expressing human CRTH2 and G-alpha16; 20 nM [3H]ramatroban; 1 hour, room temperature. From the text: A whole cell receptor binding assay using [^3H]ramatroban as the competing radioactive ligand was employed to evaluate the compound binding activity to human CRTH2. The radioactive ligand [^3H]ramatroban was synthesized according to Sugimoto et. al. (Eur. J. Pharmacol. 524, 30-37, 2005) to a specific activity of 42 Ci/mmol.
A cell line stably expressing human CRTH2 was established by transfecting CHO-K1 cells with two mammalian expression vectors that harbored human CRTH2 and G-alpha16 cDNAs, respectively, using FuGene® 6 transfection reagent (from Roche). Stable clones expressing CRTH2 were selected by staining each clone with BM16 (BD Pharmingen™ from BD Biosciences, a division of Becton, Dickinson and Company), which is a rat monoclonal antibody to human CRTH2. The cells were maintained as monolayer cultures in Ham's F-12 medium containing 10% fetal bovine serum, 100 units/mL penicillin, 100 μg/mL streptomycin, 2 mM glutamine, 0.5 mg/mL G418 (geneticin) for CRTH2, and 0.2 mg/mL hygromycin-B (for G-alpha 16). For whole cell receptor binding assay, the monolayer cells were rinsed once with PBS (phosphate buffered saline), dissociated using ethylenediaminetetraacetate (Versene™ EDTA from Lonza Inc.), and suspended in PBS containing 10 mM MgCl2 and 0.06% BSA (bovine serum albumin) at 1.5×10^6 cells/mL.
The binding reactions (0.2 mL) were performed in 96-well plates at room temperature in PBS containing 1.5×10^5 cells, 10 mM MgCl2, 0.06% BSA, 20 nM [^3H]ramatroban, and test compound at various concentrations. After 1 hour of binding reactions, the cells were harvested on GF™/B filter microplates (microtiter plates with embedded glass fiber from PerkinElmer, Inc.) and washed 5 times with PBS using a Filtermate™ Harvester (a cell harvester that harvests and washes cells from microplates from PerkinElmer, Inc.). The radioactivities bound to the cells were determined using a microplate scintillation counter (TopCount® NXT, from PerkinElmer, Inc.) after adding 50 μL of Microscint™ 20 scintillation fluid (from PerkinElmer, Inc.) to each well of the filter plates. The radioactivity from non-specific binding was determined by replacing compound with 10 μM of 15(R)-15-methyl PGD2 (from Cayman Chemical Company) in the reaction mixtures. The radioactivity bound to the cells in the absence of compound (total binding) was determined by replacing compound with 0.25% of DMSO (dimethyl sulfoxide) in the reaction mixture. Specific binding data were obtained by subtracting the radioactivity of non-specific binding from each binding data.
The IC50 value is defined as the concentration of the tested compound that is required for 50% inhibition of total specific binding. In order to calculate the IC50 value, the percent inhibition data were determined for 7 concentrations for each compound. The percent inhibition for a compound at each concentration was calculated according to the following formula, [1−(specific binding in the presence of compound)/(total specific binding)]×100. The IC50 value was then obtained by fitting the percent inhibition data to a sigmoidal dose-response (4 parameter logistic) model in the XLfit® software Excel add-in program [from ID Business Solutions Ltd., model 205, where F(x)=(A+(B−A)/(1+((C/x)^D)))].

The values that follow come from patent US8642629B2, “Naphthylacetic acids” (Hoffmann-La Roche Inc., priority 2008, dated 2014).

Broadly, the IC50 is the concentration that gives 50% inhibition.

Turning to `O=C(O)Cc1cc(Oc2ccc(S(=O)(=O)C3CC3)cc2)c2cc(F)ccc2c1` [Example 1-5, [4-(4-cyclopropanesulfonyl-phenoxy)-6-fluoro-naphthalen-2-yl]-acetic acid], the IC50 came to 9.3 nM. Regarding `CCS(=O)(=O)c1ccc(Oc2cc(CC(=O)O)cc3ccc(F)cc23)nc1` [Example 1-11, [4-(5-ethanesulfonyl-pyridin-2-yloxy)-6-fluoro-naphthalen-2-yl]-acetic acid], the IC50 is 5.6 nM.

Molecule `Cc1c(CC(=O)O)cc2ccc(F)cc2c1Oc1ccc(C#N)cc1` [Example 2-44, [4-(4-cyano-phenoxy)-6-fluoro-3-methyl-naphthalen-2-yl]-acetic acid] showed an IC50 of 10 nM.

For `CCN(CC)S(=O)(=O)c1ccc(Oc2c(C)c(CC(=O)O)cc3ccc(F)cc23)cc1` [Example 2-39, [4-(4-diethylsulfamoyl-phenoxy)-6-fluoro-3-methyl-naphthalen-2-yl]-acetic acid], the IC50 was 2 nM.

In turn, `CCS(=O)(=O)c1cnc(Oc2c(C)c(CC(=O)O)cc3ccc(F)cc23)c(C)c1` [Example 2-35, [4-(5-ethanesulfonyl-3-methyl-pyridin-2-yloxy)-6-fluoro-3-methyl-naphthalen-2-yl]-acetic acid] had an IC50 of 2.9 nM. Then `CS(=O)(=O)c1ccc(Oc2cc(CC(=O)O)cc3ccc(Cl)cc23)cc1` [Example 1-3, [6-chloro-4-(4-methanesulfonyl-phenoxy)-naphthalen-2-yl]-acetic acid], with 8.5 nM. `Cc1c(CC(=O)O)cc2ccc(F)cc2c1Oc1ccc(S(=O)(=O)C2CC2)cc1` [Example 2-5, [4-(4-cyclopropanesulfonyl-phenoxy)-6-fluoro-3-methyl-naphthalen-2-yl]-acetic acid] yielded an IC50 of 3.5 nM. Then `Cc1cc(Oc2c(C)c(CC(=O)O)cc3ccc(F)cc23)ccc1S(C)(=O)=O` [Example 2-6, [6-fluoro-4-(4-methanesulfonyl-3-methyl-phenoxy)-3-methyl-naphthalen-2-yl]-acetic acid], with 2.7 nM; and `CS(=O)(=O)c1ccc(Oc2cc(CC(=O)O)cc3ccccc23)cc1` [Example 3-1, [4-(4-methanesulfonyl-phenoxy)-naphthalen-2-yl]-acetic acid], with 12.9 nM; and `CCS(=O)(=O)c1ccc(Oc2cc(CC(=O)O)cc3cc(OC)c(OC)cc23)cc1` [Example 1-23, [4-(4-Ethanesulfonyl-phenoxy)-6,7-dimethoxy-naphthalen-2-yl]-acetic acid], with 97.3 nM. For `Cc1c(CC(=O)O)cc2ccc(F)cc2c1Oc1ccc(S(C)(=O)=O)cc1Cl` [Example 2-20, [4-(2-chloro-4-methanesulfonyl-phenoxy)-6-fluoro-3-methyl-naphthalen-2-yl]-acetic acid], the IC50 came to 2.5 nM. The molecule `CCS(=O)(=O)c1ccc(Oc2c(C)c(C(C)C(=O)O)cc3ccc(F)cc23)nc1` (centres unmarked) [Example 22-1, 2-[4-(5-Ethanesulfonyl-pyridin-2-yloxy)-6-fluoro-3-methyl-naphthalen-2-yl]-propionic acid] registered a 50% inhibitory concentration (IC50) of 378 nM. The molecule `Cc1c(CC(=O)O)cc2ccc(F)cc2c1Nc1ccc(S(C)(=O)=O)cc1` [Example 8-2, [6-fluoro-4-(4-methanesulfonyl-phenylamino)-3-methyl-naphthalen-2-yl]-acetic acid] showed an IC50 of 2.6 nM. As to `CS(=O)(=O)c1ccc(S(=O)(=O)c2cc(CC(=O)O)cc3ccc(F)cc23)cc1` [Example 11-1, [6-fluoro-4-(4-methanesulfonyl-benzenesulfonyl)-naphthalen-2-yl]-acetic acid], the half-maximal inhibitory concentration (IC50) was found to be 7.7 nM. In turn, `CCS(=O)(=O)c1ccc(Oc2cc(CC(=O)O)cc3ccc(C#N)cc23)nc1` [Example 14-1, [6-Cyano-4-(5-ethanesulfonyl-pyridin-2-yloxy)-naphthalen-2-yl]-acetic acid] registered an IC50 of 3.3 nM. This IC50 lies about 2.3-fold lower than the previous one. For the molecule `Cc1cc(S(C)(=O)=O)cnc1Oc1cc(CC(=O)O)cc2ccc(F)cc12` [Example 1-10, [6-fluoro-4-(5-methanesulfonyl-3-methyl-pyridin-2-yloxy)-naphthalen-2-yl]-acetic acid], the IC50 came out at 3.3 nM. This lies in the single-digit nanomolar range. The result for `CCS(=O)(=O)c1ccc(Oc2c(C)c(CC(=O)O)cc3ccc(F)cc23)cc1` [Example 2-1, [4-(4-ethanesulfonyl-phenoxy)-6-fluoro-3-methyl-naphthalen-2-yl]-acetic acid] reads 3.2 nM.

`Cc1c(CC(=O)O)cc2ccccc2c1Oc1ccc(S(C)(=O)=O)cc1` [Example 3-2, [4-(4-methanesulfonyl-phenoxy)-3-methyl-naphthalen-2-yl]-acetic acid]: the IC50 came out at 4.7 nM. The molecule `CCS(=O)(=O)c1cnc(Oc2c(C)c(CC(=O)O)cc3ccc(F)cc23)c(C2CC2)c1` [Example 21-1, [4-(3-Cyclopropyl-5-ethanesulfonyl-pyridin-2-yloxy)-6-fluoro-3-methyl-naphthalen-2-yl]-acetic acid] had an IC50 of 2.8 nM. The result for `Cc1c(CC(=O)O)cc2ccc(F)cc2c1Oc1ccc(S(=O)(=O)N2CCN(C)CC2)cc1` [Example 2-41, {6-fluoro-3-methyl-4-[4-(4-methyl-piperazine-1-sulfonyl)-phenoxy]-naphthalen-2-yl}-acetic acid] reads 1.7 nM.

As to `Cc1c(CC(=O)O)cc2ccc(Cl)cc2c1Oc1ccc(S(C)(=O)=O)cc1` [Example 2-7, [6-Chloro-4-(4-methanesulfonyl-phenoxy)-3-methyl-naphthalen-2-yl]-acetic acid], the IC50 turned out to be 2.2 nM. `CCc1c(CC(=O)O)cc2ccc(F)cc2c1Oc1ccc(S(=O)(=O)CC)cn1` [Example 19-1] yielded an IC50 of 17.5 nM.

As for `CCS(=O)(=O)c1ccc(Oc2c(C)c(CC(=O)O)cc3ccc(F)cc23)c(Cl)c1` [Example 2-21, [4-(2-chloro-4-ethanesulfonyl-phenoxy)-6-fluoro-3-methyl-naphthalen-2-yl]-acetic acid], the IC50 was determined as 2.4 nM. In turn, `CCS(=O)(=O)c1cc(F)c(Oc2c(C)c(CC(=O)O)cc3ccc(F)cc23)cc1Cl` [Example 2-24, [4-(5-chloro-4-ethanesulfonyl-2-fluoro-phenoxy)-6-fluoro-3-methyl-naphthalen-2-yl]-acetic acid] returned an IC50 of 8.2 nM. On to `CCS(=O)(=O)c1ccc(Oc2cc(CC(=O)O)cc3ccc(C)cc23)nc1` [Example 13-1, [4-(5-Ethanesulfonyl-pyridin-2-yloxy)-6-methyl-naphthalen-2-yl]-acetic acid], for which the half-maximal inhibitory concentration (IC50) was determined as 73.7 nM. The result for `Cc1cc(S(C)(=O)=O)ccc1Oc1c(C)c(CC(=O)O)cc2ccc(Cl)cc12` [Example 2-9, [6-chloro-4-(4-methanesulfonyl-2-methyl-phenoxy)-3-methyl-naphthalen-2-yl]-acetic acid] reads 2.7 nM; that for `Cc1c(CC(=O)O)cc2ccc(F)cc2c1Oc1cc(F)c(S(C)(=O)=O)cc1F` [Example 2-15, [4-(2,5-difluoro-4-methanesulfonyl-phenoxy)-6-fluoro-3-methyl-naphthalen-2-yl]-acetic acid], 2.6 nM. Molecule `CCS(=O)(=O)c1ccc(Oc2c(C)c(CC(=O)O)cc3ccc(F)cc23)cc1Cl` [Example 2-19, [4-(3-chloro-4-ethanesulfonyl-phenoxy)-6-fluoro-3-methyl-naphthalen-2-yl]-acetic acid] came in with an IC50 of 12.4 nM. Consider `Cc1c(CC(=O)O)cc2ccc(F)cc2c1Oc1ccc(S(C)(=O)=O)cc1F` [Example 2-12, [6-fluoro-4-(2-fluoro-4-methanesulfonyl-phenoxy)-3-methyl-naphthalen-2-yl]-acetic acid], for which the IC50 worked out at 1.8 nM.
